Measurements from patent publication US7375215B2, “Compounds for PDT” (Bioscience Technology Investment Holdings Limited, priority 2000, dated 2008).

Legend:
[1] = system: Colo26 mouse colorectal tumour cells; experiment: Uptake by Colo26 tumour cells in culture; type: cell-based; conditions: 1.5 μM; for 6 hour uptake (millions of molecules per cell) / 24 hour uptake (millions of molecules per cell) / Rate of uptake 6-24 h (thousands of molecules per cell per hour): Colo26 cells
Description: Colo26 mouse colorectal tumour cells were grown in culture using standard methods. […] At the end of the set time period, the culture medium containing the added photosensitiser was removed and the cells washed with cold phosphate buffered saline. The cells were freed from the culture flask by treatment with trypsin solution. The viable cell count was determined using a standard haemocytometer and the photosensitiser extracted from the cells by treatment with methanol:DMSO (4:1, v:v). Cell extracts were frozen in liquid nitrogen and stored at −70° C. for later analysis. The photosensitiser content of the cell extract was determined by direct fluorescence using standard curves of photosensitiser and correcting for extraction efficiency from the cell suspension. […] (millions of molecules per cell, m against time t (hours)). […] The uptake of m-THPC is rapid, reaching a peak around 24 hours after which the photosensitiser content of the cells declines. […] However, the amount of photosensitiser taken up is greater. […] The mechanism of photosensitiser uptake by cells remains a subject of study. In the case of small hydrophobic sensitisers such as m-THPC, which are generally presented to cells bound to protein or lipoprotein in biological systems, a role for specific lipoprotein receptors has been implicated. […] One way in which uptake mechanisms may be studied is by determining the influence of temperature. In general, active (energy-dependent) uptake processes are inhibited in cells maintained at 4° C. compared to those at 37° C. Passive (energy-independent) uptake processes are much less temperature-dependent.

Solubility in water = type: physicochemical
[2] = Spectroscopic properties (absorbance, fluorescence); type: physicochemical; conditions: for Fluorescence in aqueous solution relative to ethanol: excited at 405 nm, indicates aggregation in water; for Molar extinction coefficient at the red peak: red absorption peak
Balb/c mice = experiment: Cutaneous photosensitivity (ear thickness after xenon light irradiation); type: in vivo; conditions: 0.88 μmol kg^−1, 40 Joules per cm^2 xenon light
Description: Cutaneous photosensitivity was determined in adult female Balb/c mice, held under standard conditions and allowed access to food and water ad libitum. […] Each mouse was weighed immediately before injection and the injected volume adjusted to give the correct dose.
At 24 or 72 hours after photosensitiser injection one ear of each mouse was irradiated with full-spectrum xenon light from a 1 KW clinical photo-irradiator (Model UV-90, Applied Photophysics, London). The light was delivered to the ear using a 7 mm diameter light guide (Serial SU3) placed lightly against the ear. The light dose given was 40 Joules per cm^2, which was achieved by exposing the ear for 63 seconds to 245 mW of light from the light guide having a contact area of 0.384 cm^2. The light guide filtered infra-red and ultra-violet light, so as to minimise heating of the ear and damage resulting from ultra-violet light irradiation.
Animals treated with light at the 24 or 72 hour drug-light intervals were killed at 48 or 24 hours respectively after irradiation of the ears. The oedema of the irradiated and control ears was assessed by measuring ear thickness. The thickness of the ear was measured at three sites on the upper third of the ear using a fixed-force micrometer with a vernier-interpolated resolution of 2 μm and an accuracy of 10 μm (Neill instruments).

[3] = usual clinical dose of 0.15 mg kg^−1; cited from earlier work
[4] = Plasma and tissue photosensitiser concentrations in tumour-bearing mice
Description: Adult female Balb/c mice bearing the syngeneic colo26 tumour implanted subcutaneously were produced using methods previously described (Ansell et al. Lasers in Medical Science 1997, 12, 336-41). Groups of mice of weight 19-22 g were given the photosensitisers at a dose of 0.88 μmol kg^−1 (equivalent to 0.6 mg kg^−1 in the case of m-THPC) by injection into the tail vein. The solutions for injection of each compound were prepared at a concentration of 0.352 μmol ml^−1 so that a typical 20 g mouse would be injected with a volume of 50 μl.
Animals were sacrificed at 6, 24, 72 and 192 hours after injection of each photosensitiser. Immediately after sacrifice, blood was obtained by cardiac puncture, and centrifuged at 13,000×g for three minutes. The resulting supernatant (blood plasma) was aspirated and stored at −70° C. for subsequent analysis. The photosensitiser content of each sample was measured from the fluorescence of an extract obtained using methanol:DMSO (3:5, v:v). A 50 μl portion of each extract was transferred to a disposable fluorescence cuvette and the fluorescence determined using an excitation wavelength of 418 nm and emission wavelength of 650 nm with an eight second response setting. The assay was calibrated using stock solutions of each compound in methanol, further diluted in methanol:water (1:1, v/v) and extracted with methanol:DMSO as described above. […] The measurement protocol was designed to dilute each sample to a sufficient extent to avoid interference by endogenous chromophores (absorbance of samples <<0.1 at the excitation wavelength).
The selectivity for tumour specific tissue distribution was also evaluated in this work. Tissue selectivity was evaluated as the tumour:muscle concentration ratio over the duration of the observation period (4-192 hours post-administration). This ratio provided a direct measure of the normal tissue to tumour tissue differential in concentrations and allows selection of an optimal treatment time for PDT that minimises the potential to cause collateral damage of normal tissues.

[5] = system: syngeneic colo26 tumour implanted subcutaneously; experiment: Tumour PDT activity (tumour necrosis) in mouse implanted colorectal tumour model
Description: Information on the tumour PDT activity have been obtained in the aforementioned mouse model bearing the syngeneic colo26 tumour implanted subcutaneously at the top of the left hind leg (approximately 1 cm lateral to the spine). The tumours were used after 12 to 16 days when they had reached an average diameter of 8 to 10 mm. For drug injection and irradiation animals were sedated with Hypnorm diluted in water (1:3).

[6] = system: syngeneic colo26 tumour implanted subcutaneously; conditions: 4.4 μmol kg^−1; drug-light interval 72 hours; light 652 nm; cited from earlier work
tumour and muscle = conditions: cited from earlier work
[7] = 0.88 μmol kg^−1 i.v., 6-192 hours

Compound | 6 hour uptake (millions of molecules per cell) ([1]; 4° C.) | 24 hour uptake (millions of molecules per cell) ([1]; 4° C.) | Rate of uptake 6-24 h (thousands of molecules per cell per hour) ([1]; 4° C.) | 6 hour uptake (millions of molecules per cell) ([1]; 37° C.) | 24 hour uptake (millions of molecules per cell) ([1]; 37° C.) | Rate of uptake 6-24 h (thousands of molecules per cell per hour) ([1]; 37° C.) | Fluorescence in aqueous solution relative to ethanol [2] | Molar extinction coefficient at the red peak [2] | Differences in ear thickness (irradiated-control), Mean (Balb/c mice; 24 h drug-light interval) | Differences in ear thickness (irradiated-control), Mean (Balb/c mice; 72 h drug-light interval) | further results
Oc1cccc(-c2c3nc(c(-c4cccc(O)c4)c4ccc([nH]4)c(-c4cccc(O)c4)c4nc(c(-c5cccc(O)c5)c5ccc2[nH]5)CC4)C=C3)c1 [m-THPC, 7,8-dihydro-5,10,15,20-tetrakis(3-hydroxyphenyl)porphyrin] | 0.82 millions of molecules per cell | 1.33 millions of molecules per cell | 28 thousands of molecules per cel | 79.2 millions of molecules per cell | 208 millions of molecules per cell | 7184 thousands of molecules per cel | severely quenched | ~30,000 L mol^−1 cm^−1 | 41 μm | 2 μm | Inhibition of uptake at 4° C., factor ([1]; 4° C. versus 37° C.): over 250; Time of peak uptake by tumour cells ([1]; 37° C.): around 24 hours; Solubility in water (Solubility in water; water): insoluble; Solubility in water (Solubility in water; water / aqueous solvents): insoluble in aqueous solvents; Duration of skin sensitivity [3]: 2-3 weeks
tetrakis (6′-(methoxy PEG 2000 carbamate)1′-isocyanate hexamethylene) derivative of 7,8dihydro-5,10,15,20-tetrakis(3-hydroxyphenyl)porphyrin [SPC 0172] | 1.08 millions of molecules per cell | 1.78 millions of molecules per cell | 39 thousands of molecules per cel | 1.12 millions of molecules per cell | 2.08 millions of molecules per cell | 53 thousands of molecules per cel | 36% | ~22,000 L mol^−1 cm^−1 | 2 μm | 0 μm | Uptake on cooling as share of that at 37° C. ([1]; 4° C. versus 37° C.): about 75%; Cell photosensitiser content, times as much as SPC 0038B ([1]; after 72 hours of incubation, 37° C.): about 5; Liver photosensitiser levels [4, 7]: lower and eliminated more quickly; Plasma concentration-time profile [4, 7]: lower absolute levels and more rapid elimination; Skin photosensitiser concentrations [4, 7]: low throughout the 6-192 hour measurement period; Tumour:muscle concentration ratio ([4]; 72 hours post-administration, 0.88 μmol kg^−1 i.v.): about 7.5; Time of optimal tumour:muscle concentration ratio ([4]; post-administration, 0.88 μmol kg^−1 i.v.): 72 h; PDT activity compared with m-THPC ([5]; Balb/c mice bearing colo26): same PDT activity as m-THPC; Time of maximum photodynamic effect in tumour ([5]; Balb/c mice bearing colo26): 2 days; Damage of surrounding skin and underlying muscle at treated sites ([5]; particularly at the two day drug-light interval): only limited damage of the surrounding skin and underlying muscle; Tumour damage at a range of drug-light intervals ([5]; same dose (1.76 μmol kg^−1), light dose 20 J cm^−2, all drug-light intervals up to 72 hours): Full thickness tumour damage
tetrakis (ω-methoxypolyethylene glycol [MW=2000] triazine of 7,8-dihydro-5,10,15,20-tetrakis(3-hydroxyphenyl)porphyrin [SPC 0038B] | 0.56 millions of molecules per cell | 0.64 millions of molecules per cell | 4 thousands of molecules per cel | 0.82 millions of molecules per cell | 0.86 millions of molecules per cell | 2 thousands of molecules per cel | 47% |  | 25 μm | 4 μm | Uptake in the cold compared with 37° C. ([1]; 4° C. versus 37° C.): twice as great in the cold than at 37 °C; Cell photosensitiser content, factor less than that of m-THPC ([1]; after 72 hours incubation, 37° C.): ~100; Excretion from the liver ([4]; mouse, in vivo): more slowly than m-THPC; Biological effect (mm of tumour necrosis) [6]: 3.3 ± 0.7 ^1 mm; Time for which tumour retained maximum sensitivity to light (tumour and muscle; after drug administration, mouse model): at least 15 days; Time of peak concentration in muscle (tumour and muscle; after injection): ≤ 72 h; Muscle photosensitivity (tumour and muscle; three days after administration, mouse model): no longer photosensitive; PDT treatment times with sustained PDT tumour necrosis (tumour and muscle; tumour bioactivity): 4 to 15 days; Fold less potency in comparison to SPC 0172 and m-THPC ([5]; optimal drug-light interval of 72 hours, dose level and degree of tumour necrosis basis): 10-20 fold
